From patent publication US5591755A, “Pyridinyl thiadiazolyl compounds for treating glaucoma” (Novo Nordisk A/S, priority 1990, dated 1997)
Counter-ions that a name gives are not always drawn. Like-named read-outs stand apart in the source and are kept apart here.

Assays:
[1] = target: muscarinic acetylcholine receptors; assay: inhibition of specific binding of 3H-Oxotremorine-M (3H-Oxo), in vitro; parameters: species or system rat (cortex from male Wistar rats); details: 3H-Oxo binding, rat cortex, 1.0 nM radioligand, 20 mM Hepes pH 7.4, 30 min at 25° C.
From the text: The pharmacological properties of the compounds of the invention can be illustrated by determining their capability to inhibit the specific binding of ^3 H-Oxotremorine-M (^3 H-Oxo). Birdsdall N. J. M., Hulme E. C., and Burgen A. S. V. (1980). "The Character of Muscarinic Receptors in Different Regions of the Rat Brain". Proc. Roy. Soc. London (Series B) 207,1. ^3 H-Oxo labels muscarinic receptor in the CNS (with a preference for agonist domaines of the receptors). Three different sites are labelled by ^3 H-Oxo. […] Using the present experimental conditions only the high and medium affinity sites are determined.
The inhibitory effects of compounds on ^3 H-Oxo binding reflects the affinity for muscarinic acetylcholine receptors.
All preparations are performed at 0°-4° C. unless otherwise indicated. Fresh cortex (0.1-1 g) from male Wistar rats (150-250 g) is homogenized for 5-10 s in 10 ml 20 mM Hepes pH: 7.4, with an Ultra-Turrax homogenizer. The homogenizer is rinsed with 10 ml of buffer and the combined suspension centrifuged for 15 min at 40,000×g. The pellet is washed three times with buffer. In each step the pellet is homogenized as before in 2×10 ml of buffer and centrifuged for 10 min at 40,000×g.
The final pellet is homogenized in 20 mM Hepes pH: 7.4 (100 ml per g of original tissue) and used for binding assay. Aliquots of 0.5 ml is added 25 μl of test solution and 25 μl of 3H-Oxotremorine (1.0 nM, final concentration) mixed and incubated for 30 min at 25° C. Non-specific binding is determined in triplicate using arecoline (1 μg/ml, final concentration) as the test substance. After incubation samples are added 5 ml of ice-cold buffer and poured directly onto Whatman GF/C glass fiber filters under suction and immediately washed 2 times with 5 ml of ice-cold buffer. The amount of radioactivity on the filters are determined by conventional liquid scintillation counting. Specific binding is total binding minus non specific binding.
Test substances are dissolved in 10 ml water (if necessary heated on a steambath for less than 5 minutes) at a concentration of 2.2 mg/ml.
The test value will be given as IC50 (the concentration (ng/ml) of the test substance which inhibits the specific binding of ^3 H-Oxo by 50%). [formula] where Co is specific binding in control assays and Cx is the specific binding in the test assay. (The calculations assume normal mass-action kinetics).

[2] = target: muscarinic receptor in the CNS; details: read-out: affinity of sites labelled by 3H-Oxo, cited from earlier work
[3] = in vivo; cited from earlier work
[4] = test system: central and peripheral muscarinic effects; details: cited from earlier work

| Compound | Inhibition in vitro OXO BINDING (IC50) [1] | also measured |
| --- | --- | --- |
| C[N+](C)(C)CC#CCN1CCCC1=O [Compound 3H-Oxo, ^3 H-Oxotremorine-M] | – | Kd ([2]; first of three sites (high affinity)): 1.8 nM; Kd ([2]; second of three sites (medium affinity)): 20 nM; Kd ([2]; third of three sites (not determined under the present conditions)): 3000 nM |
| CCCCCCOc1nsnc1C1=C(C)CCN(C)C1 [Compound 2, 3-(4-Hexyloxy-1,2,5-thiadiazol-3-yl)-1,2,5,6-tetrahydrohydro-1,4-dimethylpyridine oxalate] | 18 ng/mL | – |
| COC(=O)C1=CCCN(C)C1 [Arecoline, methyl 1-methyl-1,2,5,6-tetrahydropyridine-3-carboxylate] | – | biological half life [3]: very short biological half life; separation between central and peripheral muscarinic effects [4]: small separation between central and peripheral muscarinic effects |
| COc1nsnc1C1=C(C)CCN(C)C1.O=C(O)/C=C/C(=O)O [Compound 1, 1,2,5,6-Tetrahydro-3-(4-methoxy-1,2,5-thiadiazol-3-yl)-1,4-dimethylpyridine fumarate] | 108 ng/mL | – |
| CCCCCCSc1nsnc1C1=CCC(C)N(C)C1.O=C(O)C(=O)O (stereo not shown) [Compound 3, 3-(3-Hexylthio-1,2,5-thiadiazol-4-yl)-1,2,5,6-tetrahydro-1,6-dimethylpyridine oxalate] | 4.5 ng/mL | – |
| CCCCCSc1nsnc1C1=CCC(C)N(C)C1.O=C(O)C(=O)O (stereo not shown) [Compound 4, 3-(3-Pentylthio-1,2,5-thiadiazol-4-yl)-1,2,5,6-tetrahydro-1,6-dimethylpyridine oxalate] | 2.0 ng/mL | – |

Second part, led by results:

| Inhibition in vitro OXO BINDING (IC50) [1] | Compound | also measured |
| --- | --- | --- |
| 3.3 ng/mL | CCCCCOc1nsnc1C1=CCC(C)N(C)C1.O=C(O)C(=O)O (stereo not shown) [Compound 7, 3-(3-Pentyloxy-1,2,5-thiadiazol-4-yl)-1,2,5,6-tetrahydro-1,6-dimethylpyridine oxalate] | – |
| 2.4 ng/mL | CCCCCCOc1nsnc1C1=CCC(C)N(C)C1.O=C(O)C(=O)O (stereo not shown) [Compound 6, 3-(3-Hexyloxy-1,2,5-thiadiazol-4-yl)-1,2,5,6-tetrahydro-1,6-dimethylpyridine oxalate] | – |
| 1.9 ng/mL | CC1CC=C(c2nsnc2SCc2ccc(C#N)cc2)CN1C.O=C(O)C(=O)O (stereo not shown) [Compound 5, 3-(3-(4-Cyanobenzylthio)-1,2,5-thiadiazol-4-yl)-1,2,5,6-tetrahydro-1,6-dimethylpyridine oxalate] | – |
| 0.69 ng/mL | CC1CC=C(c2nsnc2SCCCCC#N)CN1C.O=C(O)C(=O)O (stereo not shown) [Compound 8, 3-(3-(4-Cyanobutylthio)-1,2,5-thiadiazol-4-yl)-1,2,5,6-tetrahydro-1,6-dimethylpyridine oxalate] | – |
